Columns and labels:
BRaf kinase = BRaf kinase (Homo sapiens, UniProt P15056); assay: ADP-Glo kinase assay, BRaf; format: biochemical; details: averages from triplicate assays
Experimental: (§1) The ADP-Glo™ kinase assay (Promega, Madison, WI) was used to screen target compounds for their inhibition effects for BRaf, EGFR kinase. The kinase assay was carried out in a 96-well plate, in a volume of 25 μL HEPES (pH 7.3) solvent containing 1.6 μg/mL EGF, and 20 ng of EGFR kinase, or 50 ng BRaf kinase, and 10 μM ATP (Promega, Madison, WI). […] Reactions in each well were started immediately by adding ATP and kept going for half an hour under 30 °C in a constant temperature incubator (Bluepard, Shanghai, China). After the plate cooled for 5 min at room temperature, 25 μl of ADP-Glo reagent was added into each well to stop the reaction and consume the remaining […] within 40 min. At the end, 50 μl of kinase detection reagent was added into the well and incubated for 1 h to produce a luminescence signal.

EGFR kinase = EGFR kinase (Homo sapiens, UniProt P00533); assay: ADP-Glo kinase assay, EGFR; format: biochemical; details: averages from triplicate assays
Experimental: as §1

OVCAR-3 cells = assay: MTT assay OVCAR-3; format: cell-based; details: Homo sapiens, 24h of treatment, mean ± SD
Experimental: (§2) Details are given in Supplementary Materials and Methods. Using probability unit and weighted regression method to calculate the IC50 value of compounds.
(§3) Total cells in the logarithmic growth phase were collected, digested using 0.25% pancreatic enzymes, and then diluted into single-cell suspensions using phosphate-buffered solution (PBS). These cells were seeded into 96-well plates at 4× 10^3-5× 10^3 cells per well (100 µL per well) and then A549, H460, OVCAR-3, SGC7901, MDA-MB-231, HCT116 and HepG2 were cultured at 37°Cin an incubator containing 5% CO2. After cell complete attachment, 100 µL of different concentrations of compounds (0.625 μM, 1.25 μM, 2.5μM, 5 μM, 10 μM) were added to the cells after the nutrient solution in each well was discarded, while no compound except 0.1% DMSO was added to cells in the control group; at the same time, each concentration was set up to 5 wells. In addition, 5 wells in each 96-well plate only received 100 µL of nutrient solution as a blank control. The plates were taken out after the cells were incubated with compounds for 24 h, and 20 µL of MTT solution (5 mg/mL) (Wuhan Boster Biotechnology Limited Company, Wuhan, China; item No. AR1156) was added into all the wells. After another time of incubation for 4 h at 37 °C, the nutrient solution in each well was discarded slowly, and 150 µL of DMSO was added to each well. The plates were shaken on a shaking table for 20 min. When the crystals were fully dissolved, the blank wells were used to zero the plate reader. The optical density (OD) of each well was detected at 490 nm. The IC50 value was determined as the concentration of the inhibitor that caused 50% inhibition. Using probability unit and weighted regression method to calculate the IC50 value of compounds.

SGC7901 cells = assay: MTT assay SGC7901; format: cell-based; details: Homo sapiens, SGC-7901, 24h of treatment, mean ± SD
Experimental: as §2, §3

HCT-116 cells = assay: MTT assay HCT-116; format: cell-based; details: Homo sapiens, 24h of treatment, mean ± SD
Experimental: as §2, §3

HepG2 cells = assay: MTT assay HepG2; format: cell-based; details: Homo sapiens, 24h of treatment, mean ± SD
Experimental: as §2, §3

HPAEpiC cell line = assay: Selectivity index against HPAEpiC; format: cell-based; details: SI = CC50/IC50
IOSE80 cell line = assay: Selectivity index against IOSE80; format: cell-based; details: SI = CC50/IC50
GES-1 cell line = assay: Selectivity index against GES-1; format: cell-based; details: SI = CC50/IC50
HCoEpiC cell line = assay: Selectivity index against HCoEpiC; format: cell-based; details: SI = CC50/IC50
LO2 cell line = assay: Selectivity index against LO2; format: cell-based; details: SI = CC50/IC50
VEGF = VEGF secretion ELISA in A549 supernatant; format: cell-based, human; details: ELISA of cell supernatant
Experimental: Since the inhibitory effect of the compound on A549 cells was stronger than that of H460, the A549 cells were treated with different concentrations of L14e. Taking the supernatant of the cells to detect the change of VEGF content by ELISA assays, and the effect of the supernatant on the formation of endothelial cells was detected.

HUVECs = assay: Tube formation in vitro; format: cell-based, human
Experimental: Matrigel was thawed at 4 °C and 50 μL of the solution were added to each well in a 96-well plate and formed a gel at 37 °C for 30 min. HUVECs were suspended at 1 × 10^4 cells in 100 μL of A549 cell supernatant with or without L14e (0, 0.5, 1.0, and 1.5 μM), and then added to each well. After 24h-incubation, the degree of tube formation was determined by counting the number of areas surrounded by tubes contained in 10 random fields, and expressed as mean ± SD. Using Image J for data analysis.

FVB mice = assay: Toxicity test in FVB mice; format: in vivo; details: 3 weeks
Experimental: Blood was collected from euthanized mice under isoflurane-induced deep anesthesia by cardiac puncture. After allowing blood coagulation at 4 °C, serum was collected by centrifugation at 3000 rpm for 10 min at 4 °C. Analysis of the level of ALT, AST, Glu and CRE in the serum was performed using a veterinary hematology analyzer (Fuji DRI-Chem 3500 s, Fujifilm, Tokyo, Japan) according to the manufacturer’s provided protocols. The histopathological changes in liver, lung, brain, and kidney were evaluated by using HE-stained section of the tissues (This part of the results is in the supplementary document).
Tissues were fixed in 10% neutral-buffered formalin for 24 h, embedded in paraffin, cut into 4-μm-thick sections, deparaffinized with xylene and processed with a graded ethanol series. Next, the sections were stained with HE and were observed using Eclipse Ts2 microscope (Nikon).

Chain of BRaf kinase (P15056 whole entry): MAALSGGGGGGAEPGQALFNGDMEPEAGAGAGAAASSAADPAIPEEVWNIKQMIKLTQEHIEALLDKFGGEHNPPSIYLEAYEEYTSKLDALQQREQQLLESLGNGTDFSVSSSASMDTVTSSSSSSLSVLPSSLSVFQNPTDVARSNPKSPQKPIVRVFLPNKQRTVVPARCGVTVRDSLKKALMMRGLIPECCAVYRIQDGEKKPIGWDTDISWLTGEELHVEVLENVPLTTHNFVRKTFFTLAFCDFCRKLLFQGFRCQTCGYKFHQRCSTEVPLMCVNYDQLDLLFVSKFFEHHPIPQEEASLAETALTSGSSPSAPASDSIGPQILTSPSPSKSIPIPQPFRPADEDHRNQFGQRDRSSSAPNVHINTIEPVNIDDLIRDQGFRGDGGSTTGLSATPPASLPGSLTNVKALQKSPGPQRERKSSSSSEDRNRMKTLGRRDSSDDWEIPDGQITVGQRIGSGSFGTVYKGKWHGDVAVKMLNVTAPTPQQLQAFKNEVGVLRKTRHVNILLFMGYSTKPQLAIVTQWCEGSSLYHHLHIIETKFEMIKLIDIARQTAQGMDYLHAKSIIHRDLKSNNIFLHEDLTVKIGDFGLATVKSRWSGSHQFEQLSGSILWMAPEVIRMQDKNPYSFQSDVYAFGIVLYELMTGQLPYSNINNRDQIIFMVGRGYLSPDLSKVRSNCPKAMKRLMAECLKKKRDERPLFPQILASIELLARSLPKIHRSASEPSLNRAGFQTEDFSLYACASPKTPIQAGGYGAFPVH
Chain of EGFR kinase (P00533 25-1210): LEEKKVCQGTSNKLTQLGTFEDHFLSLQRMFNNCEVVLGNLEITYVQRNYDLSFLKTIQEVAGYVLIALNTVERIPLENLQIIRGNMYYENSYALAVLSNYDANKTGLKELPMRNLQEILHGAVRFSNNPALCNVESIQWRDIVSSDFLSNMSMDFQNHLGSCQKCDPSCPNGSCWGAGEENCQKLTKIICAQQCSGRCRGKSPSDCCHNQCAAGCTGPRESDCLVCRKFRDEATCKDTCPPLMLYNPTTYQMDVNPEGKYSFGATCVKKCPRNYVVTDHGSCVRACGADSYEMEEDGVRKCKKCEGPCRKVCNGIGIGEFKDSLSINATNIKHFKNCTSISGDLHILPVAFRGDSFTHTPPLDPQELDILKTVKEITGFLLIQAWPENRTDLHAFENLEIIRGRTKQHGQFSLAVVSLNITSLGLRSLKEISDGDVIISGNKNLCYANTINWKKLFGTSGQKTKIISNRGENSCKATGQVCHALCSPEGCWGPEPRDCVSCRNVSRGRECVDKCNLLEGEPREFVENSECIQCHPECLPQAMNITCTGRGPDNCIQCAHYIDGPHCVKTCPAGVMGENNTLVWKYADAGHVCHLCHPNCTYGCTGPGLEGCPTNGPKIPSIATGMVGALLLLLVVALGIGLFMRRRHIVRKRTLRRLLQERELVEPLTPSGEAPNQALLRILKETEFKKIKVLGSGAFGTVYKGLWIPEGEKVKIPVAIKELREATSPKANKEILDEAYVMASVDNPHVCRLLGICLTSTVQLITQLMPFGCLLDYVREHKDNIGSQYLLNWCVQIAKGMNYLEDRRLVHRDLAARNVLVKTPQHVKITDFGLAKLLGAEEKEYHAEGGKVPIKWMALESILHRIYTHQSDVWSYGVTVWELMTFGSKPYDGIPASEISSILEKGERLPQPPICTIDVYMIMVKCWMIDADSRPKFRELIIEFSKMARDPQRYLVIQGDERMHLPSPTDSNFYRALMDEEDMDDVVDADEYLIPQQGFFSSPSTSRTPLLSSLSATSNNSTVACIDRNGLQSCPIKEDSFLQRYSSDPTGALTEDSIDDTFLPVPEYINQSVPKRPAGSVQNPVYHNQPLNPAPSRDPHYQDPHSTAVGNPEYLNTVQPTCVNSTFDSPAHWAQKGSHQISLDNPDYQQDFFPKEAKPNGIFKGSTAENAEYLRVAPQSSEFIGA

O=C(Nc1cccc(Cl)c1)Nc1ccccc1NS(=O)(=O)c1c[nH]c(=O)[nH]c1=O [Compound L14e, N'-(3-chlorophenyl)-2-(2,4-dihydroxypyrimidine-5-sulfonamido)phenyl urea]
IC50 (BRaf kinase): 1.09 µM | IC50 (EGFR kinase): 1.92 µM | IC50 (OVCAR-3 cells): 1.68 ± 0.31 µM | IC50 (SGC7901 cells): 1.95 ± 0.15 µM | IC50 (HCT-116 cells): 1.98 ± 0.18 µM | IC50 (HepG2 cells): 1.36 ± 0.13 µM | SI (Selectivity index) HPAEpiC (HPAEpiC cell line): 19.79 | SI (Selectivity index) IOSE80 (IOSE80 cell line): 8.79 | SI (Selectivity index) GES-1 (GES-1 cell line): 8.58 | SI (Selectivity index) HCoEpiC (HCoEpiC cell line): 9.40 | SI (Selectivity index) LO2 (LO2 cell line): 12.58 | secretion of VEGF in A549 cells (VEGF): significantly reduce the secretion of VEGF | expression of phosphorylated VEGFR-2 (Tyr1175) in HUVECs (HUVECs; dose-dependent): inhibiting the expression of phosphorylated VEGFR-2 | tube formation of HUVECs (HUVECs; supernatant of A549 cells treated with 0.5, 1.0, 1.5 μM, 24 h): inhibited tube formation | changes in body weight compared with control mice (FVB mice; FVB mice, 40, 80, 160 mg/kg): minimal | serum levels of AST, ALT, GLU and creatinine (FVB mice; FVB mice, 40, 80, 160 mg/kg): within the reference ranges | toxicity to mice (overall) (FVB mice; FVB mice, 40, 80, 160 mg/kg): minimal toxicity | histopathological changes in liver, lung, brain, and kidney (HE staining) (FVB mice; mice): no visible pathological changes

Source: article PMC6624297 (Cell Death & Disease, 2019)
